# Measured values: US20100075965A1, “PI3 KINASE INHIBITORS AND METHODS OF THEIR USE” (Novartis AG, priority 2006, published 2010)
# Legend:
# [1] = tested on: pSer473-Akt in A2780 cells; test: pSer473 Akt assay to monitor PI3K pathway in A2780 cells (MSD); format: cell-based; conditions: Homo sapiens; A2780 cells; read-out: A2780 pAKT 473 EC50
# How it was run: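 A2780 cells (15,000/well, adhered overnight) treated 1 h at 37 °C with compound, then lysed; pSer473-Akt and total Akt measured by MSD electrochemiluminescence. The pSer473/total Akt ratio gave percent inhibition versus DMSO, from which EC50 was derived.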
# [2] = tested on: subcutaneous A2780 ovarian xenograft tumors; test: A2780 human ovarian xenograft model in nude mice; format: in vivo; conditions: 30 mg/kg daily p.o., day 6, p<0.001 vs vehicle (ANOVA)
# Procedure: Female nude mice (6-8 weeks of age; Charles River) were implanted subcutaneously with A2780 (5×10^6 cells/mouse in 0.1 ml HBSS) cells into the right flank. […] Tumor volumes were measured (SE is the standard error of the mean).
# Tumors from mice treated with vehicle were also harvested as controls.
compound,measurement,setting,value
"CC(=O)Nc1cn2cc(-c3cnc(N)c(OC(C)C(F)(F)F)n3)ccc2n1 (centres unmarked) [Example 57, N-(6-(5-amino-6-(1,1,1-trifluoropropan-2-yloxy)pyrazin-2-yl)imidazo[1,2-a]pyridin-2-yl)acetamide]",EC50,[1],< 1000 nM
same,tumor growth inhibition,[2],79%
